# Data: US20190328869A1, “IMMUNOTHERAPEUTIC PRODUCT AND MDSC MODULATOR COMBINATION THERAPY” (Transgene SA, priority 2016, published 2019)
# Legend:
# tumor-recruited MDSCs = conditions: mouse tumor models; cited from earlier work
# HBV RNA (AAV2/8-HBV) = experiment: Serum HBV RNA by RT-qPCR in HBV-persistent mice; assay type: in vivo, C57BL/6J mice; conditions: sildenafil only 5 mg/kg/day (group b), over the experiment
# Experimental: The graph illustrates the median level of HBV RNA determined in the serum of 6 mice per group (groups a, b, e and f) treated with sildenafil at 5 mg/kg/day (group b) or with AdTG18201 alone (group e) or with a combination of AdTG18201 and sildenafil (at 5 mg/kg/day, group f). The control group a is untreated. The Y-axis indicates the median HBV RNA level (log 10 copies/mL) and the X-axis the time (number of days post-AAV2/8-HBV injection). Time points of AdTG18201 immunization (D36, D43, D50) are shown by a dashed line and the period of sildenafil treatment (from D31 to 59) is shown by a horizontal bar on the X axis.
# HBV DNA/RNA extraction was performed using the MagMax-96 viral RNA isolation kit from Ambion according to manufacturer's protocol. Briefly, 50 μL of serum was added to 20 μL of reconstituted RNA/DNA binding beads. Plate was shaken for 1 minute on a thermomixer (Eppendorf Thermomixer compact) at 600-700 rpm. Then, 130 μL of lysis/binding solution, spiked with qPCR kit internal extraction control DNA, were added before additional shaking for 10 minutes. Beads were captured on a magnetic stand for 3 minutes and after 4 washes the supernatant was discarded. Residual washing solution was removed by drying the beads (shaking of the plate for 3 minutes at 900 rpm). Then, 50 μL of elution buffer was added (shaking of the plate for 3 minutes at 900 rpm). […]
# HBV DNA (AAV2/8-HBV) = experiment: Serum HBV DNA (viral load) by qPCR in HBV-persistent mice; assay type: in vivo, C57BL/6J mice; conditions: sildenafil only 5, 20 or 80 mg/kg/day (groups b to d), over the experiment
# Experimental: Graph A illustrates the median level of HBsAg determined in the serum of groups of 10 mice (groups a to h) treated with sildenafil at 5 mg/kg/day (group b), at 20 mg/kg/day (group c), or at 80 mg/kg/day (group d) alone, or with AdTG18201 (group e) alone or with a combination of AdTG18201 and sildenafil (at 5, 20, or 80 mg/kg/day, groups f, g and h, respectively). The control group a is untreated. The Y-axis indicates the median HBsAg level (ng/mL) for each group and the X-axis the time (number of days post-AAV2/8-HBV injection). Graph B illustrates the median level of HBV DNA determined in the serum of the same groups of mice by PCR. […]
# The HBV persistent mice used in the study were described by Dion et al. (2013, J Virol, 87(10):5554-63). […] This allows the analysis of HBV-specific viral parameters (HBsAg, HBeAg, HBcAg and viremia) as well as immunological read-outs (ICS, ELISpot or humoral immune responses). […]
# HBV DNA copy number was determined in samples using the PrimerDesign™ Genesig Advanced Kit for Hepatitis B (ref. Path-HBV, PrimerDesign) and the 7500 real time system from Applied Biosystems. Data were analyzed using the 7500 System SDS software v2.0.6. […]
# The Quantitect Multiplex PCR kit (ref. 204545, Qiagen) was used to carry out the qPCR reactions. […]
# The limit of quantification (LOQ) was 100 DNA copies per reaction and the limit of detection (LOD) was 10 copies per reaction. […]
# CT26-MUC1 cells = experiment: Survival in CT26 colon cancer tumor model; assay type: in vivo, BALB/c mice; conditions: 44 days post tumor implantation; MVATG9931 5×10^7 pfu day 2 and 9; sildenafil 80 mg/kg/day drinking water day 0 to 28; 12 mice per group
compound,measurement,setting,value
"CCCc1nn(C)c2c(=O)nc(-c3cc(S(=O)(=O)N4CCN(C)CC4)ccc3OCC)[nH]c12 [sildenafil, 1-[[3-(4,7-dihydro-1-methyl-7-oxo-3-propyl-1H-pyrazolo[4,3-d]pyrimidin-5-yl)-4-ethoxyphenyl]sulfonyl]-4-methylpiperazine]",intratumoral T cell infiltration and activation,tumor-recruited MDSCs,enhance intratumoral T cell infiltration and activation
same,median level of viral RNA,HBV RNA (AAV2/8-HBV),around 4.5 log 10 copies/mL serum
same,median level of viral DNA,HBV DNA (AAV2/8-HBV),around 10^5 copies/mL serum
same,mice still alive (survival),CT26-MUC1 cells,20%
